Experimental data reported in patent US20250009780A1, “AGENTS ENCODING CLDN6 AND CD3 BINDING ELEMENTS FOR TREATING CLDN6-POSITIVE CANCERS” (BIONTECH SE, priority 2021, published 2025).

What was measured:
[1] = target: T1, CLDN6 (Homo sapiens, UniProt P56747); assay: Flow cytometric binding assay, HEK-293T-17 CLDN6 transductants; conditions: 10 μg/mL RiboMab02.1 in HEK-293T-17 supernatant
T1 construct: expressed in transfected cells
T1 sequence (P56747 1-220): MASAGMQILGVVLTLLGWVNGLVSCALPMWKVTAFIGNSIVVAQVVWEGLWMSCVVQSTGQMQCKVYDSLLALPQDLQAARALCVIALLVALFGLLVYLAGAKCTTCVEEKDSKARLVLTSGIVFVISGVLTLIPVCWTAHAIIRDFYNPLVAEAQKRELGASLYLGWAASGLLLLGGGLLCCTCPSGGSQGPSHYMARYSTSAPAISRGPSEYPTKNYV
Excerpt: (§1) Cells were first gated for singlets followed by gating for viable lymphocytes (PBMCs) or viable HEK-293T-17 cells. […] Cynomolgus monkey or human PBMCs and HEK-293T-17 transductants stably expressing luciferase (HEK-293T-17_mock), CLDN3, 4, 6 or 9 served as target cells as indicated. The dotted vertical line marks the peak position of unstained populations.

[2] = target: T2, CLDN3 (Homo sapiens, UniProt O15551); assay: Flow cytometric binding assay, HEK-293T-17 CLDN3 transductants; conditions: 10 μg/mL RiboMab02.1 in HEK-293T-17 supernatant
T2 construct: expressed in transfected cells
T2 sequence (O15551 1-220): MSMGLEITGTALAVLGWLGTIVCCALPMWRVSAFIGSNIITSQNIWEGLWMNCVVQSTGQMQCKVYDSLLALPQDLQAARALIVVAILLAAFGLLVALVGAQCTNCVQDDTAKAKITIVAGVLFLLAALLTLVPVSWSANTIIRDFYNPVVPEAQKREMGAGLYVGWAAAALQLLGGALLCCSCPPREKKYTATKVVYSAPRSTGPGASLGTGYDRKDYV
Excerpt: as §1

[3] = target: T3, human CD3 (Homo sapiens, UniProt P07766); assay: Flow cytometric binding assay, human PBMCs; conditions: 10 μg/mL
T3 construct: endogenous in cells; host or cells: human PBMCs (T cells)
Excerpt: as §1

[4] = system: human PBMCs (T cells); assay: T-cell proliferation assay (CFSE-labeled PBMCs, flow cytometry); type: cell-based
Excerpt: CFSE-labeled human PBMCs from three healthy donors were co-cultured with CLDN6-positive PA-1 and OV-90 target cells or with CLDN6-negative but control TAA-positive NUGC-4 as well as target-negative MDA-MB-231 control cells in a 12-well culture plate format. An effector-to-target-cell ratio of 10:1 was applied. In addition, PBMCs without (−) target cells were included separately. […] OKT3 antibody (anti-human CD3; black bars) served as positive control for target-independent CD3-driven T-cell proliferation. After 72 h of incubation, the percentages of proliferating T cells were analyzed by flow cytometry.
HEK-293T-17 producer cells were transfected with BNT142 or a control RiboMab-encoding RNA. Supernatants containing RiboMab02.1 or the control RiboMab (specific for an irrelevant TAA) were used as test items. Two concentrations (100 or 1 ng/mL) of RiboMab-containing supernatant were added to co-cultures of carboxyfluorescein succinimidyl ester (CFSE)-labeled human PBMCs and target-positive or -negative cells. PA-1 or OV-90 served as CLDN6-positive and MDA-MB-231 as target-negative cells. CLDN6-negative NUGC-4 cells (expressing the irrelevant TAA) as well as PBMCs in the absence of any target cells were included as further specificity controls. PBMCs from three healthy donors were compared in this assay. After 72 h of incubation, T cells were analyzed by flow cytometry to determine target-dependent proliferation.

[5] = system: human PBMCs (T cells); assay: T-cell activation assay (CD69/CD25, flow cytometry); type: cell-based
Protocol: Human PBMCs from three healthy donors (effector cells) were cultured in the presence and absence of CLDN6-positive PA-1 cells (target cells) at a 10:1 effector-to-target-cell ratio. RiboMab02.1-containing mouse serum was serially-diluted (10-fold, 10-point; range: 4.0×10^−6 to 4,000 ng/mL) prior to use in the assay. After 48 h of co-incubation, cells were stained with anti-CD5, anti-CD69 and anti-CD25 antibodies for flow cytometric analysis of T cells. Shown here is the total T-cell activation normalized to samples incubated with mock serum from Luc_RNA-LNP-treated mice. Percentages of activated T cells are shown for each individual donor (left) and for all three donors as mean (right). Filled symbols represent values with and black, open symbols without target cells.
RiboMab02.1-containing as well as mock serum samples were obtained from mice administered either with BNT142 or luciferase encoding RNA-LNP (Luc_RNA-LNP; mock). Human PBMCs from three healthy donors were used as effector cells. Serum samples were serially-diluted (10-fold, 10-point), starting at 4,000 ng/mL, and added to PBMCs cultured alone or together with CLDN6-positive PA-1 target cells at an effector-to-target-cell ratio of 10:1. After 48 h of incubation, T cells were analyzed by flow cytometry for surface expression of the early and late activation markers CD69 and CD25, respectively. […] OKT3 positive control led to >50% T-cell activation with and without target cells (data not shown). Upregulation of CD69 on T cells was higher than that of CD25; CD25-positive cells were almost exclusively CD69 double-positive, pointing to an early activation state (data not shown).

[6] = Repeated-dose PK study of BNT142 in mice; type: in vivo, Balb/cJRj mice
Protocol: Female Balb/cJRj mice (n=4) were injected IV with 10 or 30 μg BNT142 or 30 μg Luc_RNA-LNP as control once weekly for a total of five administrations at the time points indicated by the horizontal dotted lines. Blood was drawn from mice at baseline (0 h), 6 h after (6, 174, 342, 510, and 678 h) and 24 h before (144, 312, 480, and 648 h) each BNT142 or saline administration, respectively. A final blood draw was done 816 h after the first BNT142/saline administration.
Treatment groups received five IV bolus injections of 10 or 30 μg BNT142 (approximately 0.4 and 1.2 mg/kg, respectively) or 30 μg Luc_RNA-LNP at a weekly interval. Serum samples were prepared from blood drawn from the animals at 6 h after (tmax) and 24 h prior to (last detectable concentration [Ctrough]) each BNT142 administration. […] The last blood samples were drawn 816 h (34 days) after the first injection.

T3 sequence (P07766 23-207): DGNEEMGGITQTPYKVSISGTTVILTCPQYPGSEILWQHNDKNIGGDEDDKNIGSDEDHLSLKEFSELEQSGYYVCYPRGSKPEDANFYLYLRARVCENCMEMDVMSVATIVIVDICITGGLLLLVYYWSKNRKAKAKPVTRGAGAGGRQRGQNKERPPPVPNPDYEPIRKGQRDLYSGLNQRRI
T3 sequence (P04234 22-171 partner): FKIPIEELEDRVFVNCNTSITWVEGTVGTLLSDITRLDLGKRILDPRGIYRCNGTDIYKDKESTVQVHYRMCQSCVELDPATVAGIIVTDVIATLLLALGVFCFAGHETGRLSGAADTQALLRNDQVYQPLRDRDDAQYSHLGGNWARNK
T3 sequence (P09693 23-182 partner): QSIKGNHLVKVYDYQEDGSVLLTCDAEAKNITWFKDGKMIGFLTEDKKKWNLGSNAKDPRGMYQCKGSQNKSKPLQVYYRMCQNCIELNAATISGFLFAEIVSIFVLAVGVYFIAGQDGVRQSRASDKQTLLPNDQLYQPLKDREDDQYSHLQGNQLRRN
T3 sequence (P20963 22-164 partner): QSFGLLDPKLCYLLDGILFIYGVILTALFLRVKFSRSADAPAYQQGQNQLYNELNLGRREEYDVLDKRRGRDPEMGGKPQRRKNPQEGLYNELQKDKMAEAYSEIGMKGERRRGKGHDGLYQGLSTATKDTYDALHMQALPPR

Substance: RiboMab02.1: Fab-(scFv)2-based bispecific antibody (tribody) against CLDN6 and CD3 encoded by BNT142; SEQ ID NOs: 4 and 6; C53S
- binding to CLDN6 [1]: bound specifically
- binding to CLDN3 [2]: not to CLDN3, CLDN4 or CLDN9
- binding to human CD3 [3]: recognized
- T-cell proliferation ([4]; PBMCs co-cultured with CLDN6-negative NUGC-4 cells): no RiboMab02.1-driven T-cell proliferation
- T-cell proliferation ([4]; PBMCs co-cultured with MDA-MB-231 cells): no RiboMab02.1-driven T-cell proliferation
- T-cell proliferation ([4]; absence of any target cells): no RiboMab02.1-driven T-cell proliferation
- T-cell proliferation ([4]; with OV-90 cells, 1 ng/mL, 72 h): 2±3%
- T-cell proliferation ([4]; with OV-90 cells, 100 ng/mL, 72 h): 24±3%
- T-cell proliferation ([4]; with PA-1 cells, 1 ng/mL, 72 h): ~44±7%
- T-cell proliferation ([4]; with PA-1 cells, 100 ng/mL, 72 h, E:T 10:1, three donors): approximately 58±2%
- off-target T-cell activation ([5]; PBMCs without target cells, up to 40 ng/mL RiboMab02.1, 48 h): No off-target T-cell activation
- concentration above EC50 up to which T-cell activation is target-dependent ([5]; onset of unspecific T-cell activation relative to EC50): > 1,500 fold
- RiboMab02.1 peak level (Cmax) in serum ([6]; 10 μg BNT142 weekly x5, 6 h after last injection): up to 7.4 μg/mL
- RiboMab02.1 translation between subsequent injections ([6]; either BNT142 dose): no loss in RiboMab02.1 translation
- Ctrough lower than Cmax ([6]; within 7 days of each injection): approximately 130 fold
